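Briefly, cells in 96-well plates were exposed to five compound concentrations for 48 h, and endpoints were estimated by linear interpolation. GI50 is the concentration that inhibits growth by half.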 Activity calls are given as the source filed them. Cut-off read from the data, not from the text of the source: active = GI50 up to about 1.1 µM and inactive = higher.

This is an account of results in ChEMBL document CHEMBL1201862, “PubChem BioAssay data set” (2004).

Holding throughout (assay): inhibition of tumour cell growth, NCI panel, 48 h
Assay [1] concerns A498.
Assay [2] has as its system COLO 205.
Assay [3] relates to DU-145.
Assay [4] concerns HCC 2998.
For assay [5], the system named is HOP-62.
The subject of assay [6] is HT-29.
Assay [7] concerns Hs-578T.
Assay [8] relates to KM12.
Assay [9] relates to M14.
The subject of assay [10] is MCF7.
Assay [11] has as its system MDA-MB-435.
For assay [12], the system named is NCI-H23.
Assay [13] has as its system NCI/ADR-RES.
Assay [14] relates to OVCAR-3.
Assay [15] deals with OVCAR-4.
Assay [16] concerns OVCAR-5.
For assay [17], the system named is SF-539.
Assay [18] has as its system SK-MEL-2.
Assay [19] concerns SW-620.
Assay [20] has as its system T47D.

Take `C[C@H](CCC1=NCCN1)[C@H]1CC[C@H]2[C@@H]3CC[C@@H]4C[C@H](O)CC[C@]4(C)[C@H]3CC[C@]12C`: the GI50 in assay [1] is 14.9 µM (inactive); in [2], 1.95 µM (inactive); in [3] it was 13.9 µM (inactive); in assay [4] it was 5.15 µM (inactive); in assay [5], 3.46 µM (inactive); in assay [6] it was 0.575 µM (active). In addition, the GI50 was 14.8 µM (inactive) in [7]; 7.59 µM (inactive) in assay [8]; 2.49 µM (inactive) in assay [9]; 6.52 µM (inactive) in [10]; 4.53 µM (inactive) in [11]; 15 µM (inactive) in assay [12]. Besides, the GI50 in assay [13] was 16.1 µM (inactive); in assay [14], 0.394 µM (active); in assay [15], 12.9 µM (inactive); in [16], 10.7 µM (inactive); in assay [17], 10.3 µM (inactive); in assay [18], 4.49 µM (inactive). Further, the results for the GI50 in [19] and in [20] were 6.84 µM (inactive) and 13.1 µM (inactive), respectively.
